Reference: paper PMC3609026 (Cancer, 2011)
Where two headings read alike, the source gives them in different places. Values belong to the compound of their own block, whether it stands above or below them.

Experiments:
[1] = format: in vivo, human; conditions: through cycles 1 and 2, combination treatment
[2] = Pharmacokinetics: everolimus blood levels, LC/MS, noncompartmental analysis; format: in vivo, human; conditions: through cycles 1 and 2, combination treatment
[3] = test system: advanced non-clear cell RCC; conditions: single agent, 23 patients with advanced non-clear cell RCC; cited from earlier work

accumulation [1]: No unexpected accumulation
SMILES: CCNCCNC(=O)c1c(C)[nH]c(/C=C2\C(=O)Nc3ccc(F)cc32)c1C [N-desethyl sunitinib]

accumulation [2]: No unexpected accumulation
SMILES: CO[C@H]1C[C@@H]2CC[C@@H](C)[C@@](O)(O2)C(=O)C(=O)N2CCCC[C@H]2C(=O)O[C@H]([C@H](C)C[C@@H]2CC[C@@H](OCCO)[C@H](OC)C2)CC(=O)[C@H](C)/C=C(\C)[C@@H](O)[C@@H](OC)C(=O)[C@H](C)C[C@H](C)/C=C/C=C/C=C/1C [everolimus]

SMILES: CCN(CC)CCNC(=O)c1c(C)[nH]c(/C=C2\C(=O)Nc3ccc(F)cc32)c1C [sunitinib]
median PFS [3]: 5.5 months | responses [3]: no responses
